Laboratory results taken from patent publication US20110045101A1, “FUNGICIDAL SUBSTITUTED AZOLES” (E.I. Du Pont De Nemours and Company, priority 2009, published 2011).
Marks after values point to notes of the source that are not given here.

What was measured:
Type in all cases: in vivo
Settings in all cases: 100 = 100% disease control
Septoria tritici = assay: Test G: wheat leaf blotch on wheat seedlings, sprayed the day before inoculation, visual disease rating
Procedure, shortened: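 Disease was rated visually after Septoria tritici inoculation, 48 h saturated incubation at 24°C and 19 days in a 20°C growth chamber. Inoculation followed one day after run-off spraying of seedlings with compound at 200 ppm (≈500 g/ha) or, where marked, 40 ppm, formulated in acetone/water with surfactant.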

Alternaria solani = assay: Test D: tomato early blight, sprayed the day before inoculation, visual disease rating
Procedure, shortened: (§1)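 Compounds were dissolved in acetone (3% of final volume), then suspended in 50/50 acetone/purified water with 250 ppm Trem® 014 surfactant. Suspensions at 200 ppm (some at 40 ppm) were sprayed to run-off, 200 ppm being equivalent to 500 g/ha.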

[1] = test system: Erysiphe graminis f. sp. tritici; assay: Test J: wheat powdery mildew on wheat seedlings, sprayed the day before inoculation, visual disease rating
Procedure, shortened: as §1

Botrytis cinerea = assay: Test C: tomato Botrytis on tomato seedlings, sprayed the day before inoculation, visual disease rating
Procedure, shortened: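 Compounds were dissolved in acetone (3% of final volume), then suspended in 50/50 acetone/purified water containing 250 ppm polyhydric alcohol ester surfactant. Suspensions were sprayed to run-off on tomato seedlings at 200 ppm, equivalent to 500 g/ha, or at 40 ppm where marked.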

[2] = test system: Puccinia recondita f. sp. tritici; assay: Test H: wheat leaf rust, test suspension sprayed after inoculation of wheat seedlings, visual disease rating
Procedure, shortened: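 Wheat seedlings inoculated with P. recondita spores, held 24 h saturated at 20 °C, then 2 days in growth chamber at 20 °C; compound suspension (acetone/water with Trem 014) sprayed to run-off afterwards. Rated visually; 200 ppm (≈500 g/ha) unless marked *, which denotes 40 ppm.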

Septoria nodorum = assay: Test F: wheat glume blotch on wheat seedlings, sprayed the day before inoculation, visual disease rating
Procedure, shortened: as §1

[3] = test system: Puccinia recondita f. sp. tritici; assay: Test I: wheat leaf rust on wheat seedlings, sprayed the day before inoculation, visual disease rating
Procedure, shortened: as §1

[4] = 200 ppm, 0 = no control relative to controls
[5] = 40 ppm (marked *), 0 = no control

Row | SMILES | Test G disease control rating (Septoria tritici; 200 ppm, 0 = no control) | Test D disease control rating (Alternaria solani; 200 ppm, 0 = no control) | Test J disease control rating ([1]; 200 ppm, 0 = no control) | Test C disease control rating (Botrytis cinerea; 200 ppm, 0 = no control) | Test H disease control rating ([2]; 200 ppm, 0 = no control) | Test F disease control rating (Septoria nodorum; 200 ppm, 0 = no control) | Test I disease control rating ([3]; 200 ppm, 0 = no control) | Test G disease control rating (Septoria tritici; [4]) | Test D disease control rating (Alternaria solani; [4]) | Test J disease control rating [1, 4] | Test C disease control rating (Botrytis cinerea; [4]) | Test H disease control rating [2, 4] | Test F disease control rating (Septoria nodorum; [4]) | Test I disease control rating [3, 4] | further results
1 | Fc1ccc(F)c(-c2c(Cl)nc(Cl)n2Cc2ccc(Cl)cc2)c1F [compound 285] | 94% | 85% | 100% | 99% | 98% | 83% | 100% | – | – | – | – | – | – | – | –
2 | Fc1ccc(F)c(-c2c(Cl)nc(Br)n2Cc2ccc(Cl)cc2)c1F [compound 286] | 95% | 96% | 100% | 99% | 64% | 79% | 99% | – | – | – | – | – | – | – | –
3 | COc1cc(F)c(-c2c(Cl)nc(C)n2Cc2ccc(Cl)cc2)c(F)c1 [compound 287] | 95% | 100% | 99% | 100% | 17% | 99% | 100% | – | – | – | – | – | – | – | –
4 | COc1ccc(F)c(-c2c(Cl)nc(Cl)n2Cc2ccc(Cl)cc2)c1F [compound 288] | 94% | 91% | 99% | 100% | 32% | 73% | 96% | – | – | – | – | – | – | – | –
5 | COc1ccc(F)c(-c2c(Cl)nc(Br)n2Cc2ccc(Cl)cc2)c1F [compound 289] | 94% | 96% | 97% | 100% | 11% | 0% | 94% | – | – | – | – | – | – | – | –
6 | Clc1ccc(-c2c(Cl)nc(Br)n2Cc2cccc(Cl)c2)cc1 [compound 290] | 85% | 0% | 0% | 95% | 11% | 0% | 19% | – | – | – | – | – | – | – | –
7 | COc1cc(F)c(-c2c(Cl)nc(Cl)n2Cc2ccc(C)cc2)c(F)c1 [compound 291] | 94% | 80% | 94% | 99% | 6% | 0% | 98% | – | – | – | – | – | – | – | –
8 | COc1cc(F)c(-c2c(Cl)nc(Br)n2Cc2ccc(C)cc2)c(F)c1 [compound 292] | 93% | 98% | 99% | 99% | 11% | 69% | 99% | – | – | – | – | – | – | – | –
9 | Cc1nc(Cl)c(-c2c(F)ccc(F)c2F)n1Cc1ccc(Cl)cc1 [compound 293] | 95% | 91% | 100% | 99% | 6% | 0% | 99% | – | – | – | – | – | – | – | –
10 | COc1ccc(F)c(-c2c(Cl)nc(C)n2Cc2ccc(Cl)cc2)c1F [compound 294] | 96% | 100% | 97% | 99% | 11% | 98% | 98% | – | – | – | – | – | – | – | –
11 | Cc1nc(Cl)c(-c2ccc(Cl)cc2)n1Cc1cccc(Cl)c1 [compound 295] | 94% | 0% | 0% | 99% | 0% | 0% | 80% | – | – | – | – | – | – | – | –
12 | COc1cc(F)c(-c2c(Cl)nc(C)n2Cc2ccc(C)cc2)c(F)c1 [compound 296] | 96% | 96% | 97% | 100% | 17% | 86% | 99% | – | – | – | – | – | – | – | –
13 | COc1ccc(F)c(-c2c(Cl)ncn2-c2ccc(F)cc2)c1F [compound 299] | – | – | – | – | – | – | – | 97% | 99% | 99% | 99% | 0% | 90% | 99% | –
14 | COc1ccc(F)c(-c2c(Cl)ncn2-c2cccc(C)c2)c1F [compound 300] | – | – | – | – | – | – | – | 91% | 98% | 99% | 99% | 48% | 0% | 97% | –
15 | Fc1ccc(-n2c(Br)nc(Br)c2-c2ccc(Cl)c(F)c2)c(Cl)c1 [compound 301] | – | – | – | – | – | – | – | 95% | 94% | 96% | 100% | 6% | 0% | 91% | –
16 | Fc1ccc(-n2c(Cl)nc(Cl)c2-c2ccc(Cl)c(F)c2)c(Cl)c1 [compound 302] | – | – | – | – | – | – | – | 94% | 100% | 100% | 100% | 17% | 0% | 98% | –
17 | Cc1nc(Cl)c(-c2c(F)cccc2F)n1-c1ccc2ccccc2c1 [compound 303] | – | – | – | – | – | – | – | – | – | – | – | – | – | – | Test G disease control rating (Septoria tritici; [5]): 96* %; Test D disease control rating (Alternaria solani; [5]): 99* %; Test J disease control rating [1, 5]: 81* %; Test C disease control rating (Botrytis cinerea; [5]): 100* %; Test H disease control rating [2, 5]: 0* %; Test F disease control rating (Septoria nodorum; [5]): 98* %; Test I disease control rating [3, 5]: 74* %
18 | Cc1nc(Cl)c(-c2c(F)cccc2F)n1-c1ccc(Cl)c2ccccc12 [compound 304] | – | – | – | – | – | – | – | – | – | – | – | – | – | – | Test G disease control rating (Septoria tritici; [5]): 27* %; Test D disease control rating (Alternaria solani; [5]): 0* %; Test J disease control rating [1, 5]: 0* %; Test C disease control rating (Botrytis cinerea; [5]): 0* %; Test H disease control rating [2, 5]: 0* %; Test F disease control rating (Septoria nodorum; [5]): 0* %; Test I disease control rating [3, 5]: 0* %
19 | CCc1nc(C)n(-c2ccc(Cl)cc2)c1-c1c(F)cccc1F [compound 305] | – | – | – | – | – | – | – | – | – | – | – | – | – | – | Test G disease control rating (Septoria tritici; [5]): 23* %; Test D disease control rating (Alternaria solani; [5]): 0* %; Test J disease control rating [1, 5]: 0* %; Test C disease control rating (Botrytis cinerea; [5]): 63* %; Test H disease control rating [2, 5]: 11* %; Test F disease control rating (Septoria nodorum; [5]): 0* %; Test I disease control rating [3, 5]: 0* %
20 | Fc1ccc(-n2c(Br)nc(Br)c2-c2ccc(Cl)cc2)c(Cl)c1 [compound 306] | – | – | – | – | – | – | – | 94% | 96% | 99% | 99% | 6% | 0% | 91% | –
21 | Cc1nc(C)n(-c2ccc(F)cc2Cl)c1-c1ccc(Cl)cc1 [compound 307] | – | – | – | – | – | – | – | 97% | 99% | 99% | 100% | 11% | 0% | 97% | –
22 | Cc1nc(C)n(-c2c(F)cc(F)cc2F)c1-c1ccc(Cl)cc1 [compound 308] | – | – | – | – | – | – | – | – | – | – | – | – | – | – | Test G disease control rating (Septoria tritici; [5]): 88* %; Test D disease control rating (Alternaria solani; [5]): 100* %; Test J disease control rating [1, 5]: 0* %; Test C disease control rating (Botrytis cinerea; [5]): 99* %; Test H disease control rating [2, 5]: 11* %; Test F disease control rating (Septoria nodorum; [5]): 0* %; Test I disease control rating [3, 5]: 41* %
23 | COc1ccc(F)c(-c2c(Cl)nc(Cl)n2-c2ccc(Cl)cc2)c1F [compound 309] | – | – | – | – | – | – | – | 97% | 100% | 100% | 100% | 11% | 100% | 100% | –
24 | COc1ccc(F)c(-c2c(Cl)nc(Cl)n2-c2ccc(C)cc2)c1F [compound 310] | – | – | – | – | – | – | – | 96% | 100% | 100% | 99% | 61% | 99% | 100% | –
25 | COc1ccc(F)c(-c2c(Cl)nc(Br)n2-c2ccc(F)cc2)c1F [compound 314] | – | – | – | – | – | – | – | 93% | 100% | 100% | 99% | 32% | 100% | 100% | –
